Paper PMC11864979, “First-in-class ultralong-target-residence-time p38α inhibitors as a mitosis-targeted therapy for colorectal cancer” (Nature Cancer, 2025)
Where two headings read alike, the source gives them in different places.

Target: T1, 340 wild-type kinases (Homo sapiens, UniProt Q8TDC3)
T1 construct: purchased Reaction Biology Europe
T1 sequence (Q8TDC3 1-778): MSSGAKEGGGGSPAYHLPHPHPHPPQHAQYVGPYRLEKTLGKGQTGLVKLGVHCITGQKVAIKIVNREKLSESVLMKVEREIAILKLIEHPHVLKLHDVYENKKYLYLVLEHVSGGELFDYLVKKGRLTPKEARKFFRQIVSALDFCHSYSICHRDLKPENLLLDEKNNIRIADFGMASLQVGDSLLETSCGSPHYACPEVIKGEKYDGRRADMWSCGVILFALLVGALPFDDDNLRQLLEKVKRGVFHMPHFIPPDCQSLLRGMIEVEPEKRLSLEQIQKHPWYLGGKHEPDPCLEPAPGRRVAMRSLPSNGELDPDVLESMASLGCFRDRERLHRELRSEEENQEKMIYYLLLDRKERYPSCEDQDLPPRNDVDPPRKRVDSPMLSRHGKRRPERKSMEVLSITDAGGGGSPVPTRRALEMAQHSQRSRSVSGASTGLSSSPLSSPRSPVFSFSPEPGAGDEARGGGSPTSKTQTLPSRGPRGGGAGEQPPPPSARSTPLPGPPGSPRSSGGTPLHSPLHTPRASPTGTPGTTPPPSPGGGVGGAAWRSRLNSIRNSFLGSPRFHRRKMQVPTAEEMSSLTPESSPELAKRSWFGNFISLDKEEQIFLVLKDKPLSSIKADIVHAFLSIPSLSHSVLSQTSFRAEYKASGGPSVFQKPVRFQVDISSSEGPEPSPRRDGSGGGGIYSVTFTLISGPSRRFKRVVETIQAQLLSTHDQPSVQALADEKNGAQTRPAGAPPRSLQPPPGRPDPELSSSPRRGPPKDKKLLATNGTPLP
Test: selectivity profiling in a panel of 340 wild-type kinases (Reaction Biology Europe)
Assay type: binding

CNC(=O)c1ccc2c(c1)C(=O)c1ccc(Nc3ccc(F)c(NC(=O)C4CC4)c3)cc1CC2 [Compound 2015]
remaining activity at 0.2 µM (0.2 µM 2015, read-out: BRSK1 residual activity): 99.5% | remaining activity at 1 µM (1 µM 2015, read-out: BRSK1 residual activity): 90.5% | remaining activity at 0.2 µM (BRSK1, 0.2 µM, read-out: residual activity): 99.5% | remaining activity at 1 µM (BRSK1, 1 µM, read-out: residual activity): 90.5%
